In PubChem BioAssay (NCI):
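Test compounds were applied to cells in 96-well plates for 48 hours at 5 doses. GI50: concentration for 50% inhibition of growth. At the TGI there is no net growth.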

What was measured:
Experiment in all cases: growth of human tumour cells (NCI), 48 h
NCI-H23 lung = tested on: NCI-H23 lung
NCI-H460 lung = tested on: NCI-H460 lung
NCI-H522 lung = tested on: NCI-H522 lung
NCI/ADR-RES ovarian = tested on: NCI/ADR-RES ovarian
OVCAR-3 ovarian = tested on: OVCAR-3 ovarian
OVCAR-4 ovarian = tested on: OVCAR-4 ovarian
OVCAR-5 ovarian = tested on: OVCAR-5 ovarian
OVCAR-8 ovarian = tested on: OVCAR-8 ovarian
PC-3 prostate = tested on: PC-3 prostate
RPMI-8226 leukemia = tested on: RPMI-8226 leukemia
RXF 393 renal = tested on: RXF 393 renal
SF-268 CNS = tested on: SF-268 CNS
SF-295 CNS = tested on: SF-295 CNS
SF-539 CNS = tested on: SF-539 CNS
SK-MEL-2 melanoma = tested on: SK-MEL-2 melanoma
SK-MEL-28 melanoma = tested on: SK-MEL-28 melanoma
SK-MEL-5 melanoma = tested on: SK-MEL-5 melanoma
SK-OV-3 ovarian = tested on: SK-OV-3 ovarian
SN12C renal = tested on: SN12C renal
SNB-19 CNS = tested on: SNB-19 CNS
SNB-75 CNS = tested on: SNB-75 CNS
SR leukemia = tested on: SR leukemia
SW-620 colon = tested on: SW-620 colon
T-47D breast = tested on: T-47D breast
TK-10 renal = tested on: TK-10 renal
U251 CNS = tested on: U251 CNS
UACC-257 melanoma = tested on: UACC-257 melanoma
UACC-62 melanoma = tested on: UACC-62 melanoma
UO-31 renal = tested on: UO-31 renal

CC(=C(c1ccc(OCCN2CCCC2)cc1)c1ccc(OCCN2CCCC2)cc1)c1ccc(Cl)cc1
GI50 (NCI-H23 lung): 2.69 µM | TGI (NCI-H23 lung): 5.2 µM | GI50 (NCI-H460 lung): 2.96 µM | TGI (NCI-H460 lung): 5.58 µM | GI50 (NCI-H522 lung): 2.96 µM | TGI (NCI-H522 lung): 5.99 µM | GI50 (NCI/ADR-RES ovarian): 2.81 µM | TGI (NCI/ADR-RES ovarian): 5.72 µM | GI50 (OVCAR-3 ovarian): 2.64 µM | TGI (OVCAR-3 ovarian): 5.3 µM | GI50 (OVCAR-4 ovarian): 2.65 µM | TGI (OVCAR-4 ovarian): 5.39 µM | GI50 (OVCAR-5 ovarian): 2.56 µM | TGI (OVCAR-5 ovarian): 4.9 µM | GI50 (OVCAR-8 ovarian): 3.25 µM | TGI (OVCAR-8 ovarian): 7.16 µM | GI50 (PC-3 prostate): 2.29 µM | TGI (PC-3 prostate): 4.79 µM | GI50 (RPMI-8226 leukemia): 2.57 µM | TGI (RPMI-8226 leukemia): 6.74 µM | GI50 (RXF 393 renal): 2.01 µM | TGI (RXF 393 renal): 4.2 µM | GI50 (SF-268 CNS): 2.7 µM | TGI (SF-268 CNS): 5.46 µM | GI50 (SF-295 CNS): 2.69 µM | TGI (SF-295 CNS): 5.14 µM | GI50 (SF-539 CNS): 2.34 µM | TGI (SF-539 CNS): 4.67 µM | GI50 (SK-MEL-2 melanoma): 3.1 µM | TGI (SK-MEL-2 melanoma): 6.22 µM | GI50 (SK-MEL-28 melanoma): 2.64 µM | TGI (SK-MEL-28 melanoma): 5.1 µM | GI50 (SK-MEL-5 melanoma): 2.74 µM | TGI (SK-MEL-5 melanoma): 5.21 µM | GI50 (SK-OV-3 ovarian): 2.9 µM | TGI (SK-OV-3 ovarian): 5.49 µM | GI50 (SN12C renal): 2.5 µM | TGI (SN12C renal): 4.98 µM | GI50 (SNB-19 CNS): 2.79 µM | TGI (SNB-19 CNS): 5.3 µM | GI50 (SNB-75 CNS): 6.85 µM | TGI (SNB-75 CNS): 16.7 µM | GI50 (SR leukemia): 0.745 µM | TGI (SR leukemia): 16.7 µM | GI50 (SW-620 colon): 2.16 µM | TGI (SW-620 colon): 4.54 µM | GI50 (T-47D breast): 1.94 µM | TGI (T-47D breast): 5.02 µM | GI50 (TK-10 renal): 2.58 µM | TGI (TK-10 renal): 5.21 µM | GI50 (U251 CNS): 2.2 µM | TGI (U251 CNS): 4.88 µM | GI50 (UACC-257 melanoma): 2.97 µM | TGI (UACC-257 melanoma): 5.85 µM | GI50 (UACC-62 melanoma): 2.85 µM | TGI (UACC-62 melanoma): 5.52 µM | GI50 (UO-31 renal): 2.24 µM | TGI (UO-31 renal): 4.46 µM
